Data published in patent US4740233A, “Substituted 1,2,4-triazolo[1,5-a]-pyrimidine-2-sulfonamides and compositions and methods of controlling undesired vegetation and suppressing the nitrification of ammonium nitrogen in soil” (The Dow Chemical Company, priority 1986, dated 1988).

How the values were obtained:
cotton = experiment: Postemergent control of plant species; type: in vivo, Gossypium spp.; details: Gossypium hirsutum, post-emergence, 336 h, read-out: percent postemergent control
Procedure, shortened: (§1)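 Spray emulsion: acetone stock at twice final concentration plus equal volume water with 0.1% wetting agent, applied to separated greenhouse beds at 2-4 leaf stage. Assessed at ~two weeks; score reflects growth reduction compared with untreated plants.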

rape = experiment: Postemergent control of plant species; type: in vivo, Brassica napus; details: Brassica napus, post-emergence, 336 h, read-out: percent postemergent control
Procedure, shortened: as §1

soybean = experiment: Postemergent control of plant species; type: in vivo, Glycine max.; details: Glycine max, post-emergence, 336 h, read-out: percent postemergent control
Procedure, shortened: as §1

sugar beet = experiment: Postemergent control of plant species; type: in vivo, Beta saccharifera; details: Beta vulgaris, post-emergence, 336 h, read-out: percent postemergent control
Procedure, shortened: as §1

cocklebur = experiment: Postemergent control of plant species; type: in vivo, Xanthium spp.; details: Xanthium strumarium, post-emergence, 336 h, read-out: percent postemergent control
Procedure, shortened: as §1

jimsonweed = experiment: Postemergent control of plant species; type: in vivo, Datura stramonium; details: Datura stramonium, post-emergence, 336 h, read-out: percent postemergent control
Procedure, shortened: as §1

annual morning glory = experiment: Postemergent control of plant species; type: in vivo, Ipomoea spp.; details: Ipomoea, post-emergence, 336 h, read-out: percent postemergent control
Procedure, shortened: as §1

pigweed = experiment: Postemergent control of plant species; type: in vivo, Amaranthus spp.; details: Amaranthus retroflexus, post-emergence, 336 h, read-out: percent postemergent control
Procedure, shortened: as §1

velvetleaf = experiment: Postemergent control of plant species; type: in vivo, Abutilon theophrasti; details: Abutilon theophrasti, post-emergence, 336 h, read-out: percent postemergent control
Procedure, shortened: as §1

corn = experiment: Postemergent control of plant species; type: in vivo, Zea mays; details: Zea mays, post-emergence, 336 h, read-out: percent postemergent control
Procedure, shortened: as §1

rice [1] = experiment: Postemergent control of plant species; type: in vivo, Oryza sativa; details: Oryza sativa, post-emergence, 336 h, read-out: percent postemergent control
Procedure, shortened: as §1

sorghum = experiment: Postemergent control of plant species; type: in vivo, Sorghum vulgare; details: Sorghum, post-emergence, 336 h, read-out: percent postemergent control
Procedure, shortened: as §1

wheat = experiment: Postemergent control of plant species; type: in vivo, Triticum aestivum; details: Triticum aestivum, post-emergence, 336 h, read-out: percent postemergent control
Procedure, shortened: as §1

barnyardgrass [2] = experiment: Postemergent control of plant species; type: in vivo, Echinochloa crusgalli; details: Echinochloa crus-galli, post-emergence, 336 h, read-out: percent postemergent control
Procedure, shortened: as §1

crabgrass = experiment: Postemergent control of plant species; type: in vivo, Digitaria spp.; details: Digitaria sanguinalis, post-emergence, 336 h, read-out: percent postemergent control
Procedure, shortened: as §1

yellow foxtail = experiment: Postemergent control of plant species; type: in vivo, Setaria lutescens; details: Setaria, post-emergence, 336 h, read-out: percent postemergent control
Procedure, shortened: as §1

johnson grass = experiment: Postemergent control of plant species; type: in vivo, Sorghum halepense; details: Sorghum halepense, post-emergence, 336 h, read-out: percent postemergent control
Procedure, shortened: as §1

wild oats = experiment: Postemergent control of plant species; type: in vivo, Avena fatua; details: Avena fatua, post-emergence, 336 h, read-out: percent postemergent control
Procedure, shortened: as §1

yellow nutsedge [3] = experiment: Postemergent control of plant species; type: in vivo, Cyperus esculentus; details: Cyperus, post-emergence, 336 h, read-out: percent postemergent control
Procedure, shortened: as §1

rice [4] = experiment: Control of aquatic plant species (paddy water); type: in vivo, Oryza sativa; details: Oryza sativa, 216 h, nine days, read-out: Percent control; for pest or weed control at 2000 g/ha: 2.0 Kg/Ha
Description: (§2) In testing for such utility, the plant species to be tested were transplanted into 16 oz. containers into about 2 inches of soil when they were in the 1-2 inch stage and then flooded to a depth of about 1 inch. An acetone concentrate of the chemical to be tested was then injected into the paddy water, the volume injected being varied as desired to provide the desired concentration. Percent control was evaluated nine days after application.

barnyardgrass [5] = experiment: Control of aquatic plant species (paddy water); type: in vivo, Echinochloa crusgalli; details: Echinochloa crus-galli, 216 h, nine days, read-out: Percent control; for pest or weed control at 2000 g/ha: 2.0 Kg/Ha
Description: as §2

sprangletop = experiment: Control of aquatic plant species (paddy water); type: in vivo, Leptochloa filiformis; details: Leptochloa filiformis, 216 h, nine days, read-out: Percent control; for pest or weed control at 2000 g/ha: 2.0 Kg/Ha
Description: as §2

yellow nutsedge [6] = experiment: Control of aquatic plant species (paddy water); type: in vivo, Cyperus esculentus; details: Cyperus, 216 h, nine days, read-out: Percent control; for pest or weed control at 2000 g/ha: 2.0 Kg/Ha
Description: as §2

[7] = tested on: nitrification of ammonium nitrogen; experiment: Suppression of nitrification of ammonium nitrogen in soil; details: 27° C.
Procedure, shortened: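 Value is % NH4-N remaining after a two-week, 27° C incubation of treated soil held at 1/3 bar tension moisture. Nitrate was measured with an ion-selective electrode after extraction with ammonium sulfate solution and 10 min shaking.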

Cc1cc(C)n2nc(S(=O)(=O)Nc3ccccc3)nc2n1 [Compound 1]
plant injury at 500 ppm (cotton): 0%
plant injury at 500 ppm (rape): 60%
plant injury at 500 ppm (soybean): 30%
plant injury at 500 ppm (sugar beet): 85%
pest or weed control at 500 ppm (cocklebur): 0%
pest or weed control at 500 ppm (jimsonweed): 0%
pest or weed control at 500 ppm (annual morning glory): 0%
pest or weed control at 500 ppm (pigweed): 60%
pest or weed control at 500 ppm (velvetleaf): 70%
plant injury at 500 ppm (corn): 0%
plant injury at 500 ppm (rice [1]): 0%
plant injury at 500 ppm (sorghum): 40%
plant injury at 500 ppm (wheat): 0%
pest or weed control at 500 ppm (barnyardgrass [2]): 15%
pest or weed control at 500 ppm (crabgrass): 0%
pest or weed control at 500 ppm (yellow foxtail): 40%
pest or weed control at 500 ppm (johnson grass): 60%
pest or weed control at 500 ppm (wild oats): 0%
pest or weed control at 500 ppm (yellow nutsedge [3]): 0%
pest or weed control at 2000 g/ha (rice [4]): 97%
pest or weed control at 2000 g/ha (barnyardgrass [5]): 95%
pest or weed control at 2000 g/ha (sprangletop): 90%
pest or weed control at 2000 g/ha (yellow nutsedge [6]): 70%
% NH4-N Remaining After 2 Weeks Incubation ([7]; 0.01 ppm): 0%
% NH4-N Remaining After 2 Weeks Incubation ([7]; 0.1 ppm): 0%
% NH4-N Remaining After 2 Weeks Incubation ([7]; 1 ppm): 35%
% NH4-N Remaining After 2 Weeks Incubation ([7]; 10 ppm): 75%

COc1ccccc1NS(=O)(=O)c1nc2nc(C)cc(C)n2n1 [Compound 4]
plant injury at 500 ppm (cotton): 10%
plant injury at 500 ppm (rape): 40%
plant injury at 500 ppm (soybean): 40%
plant injury at 500 ppm (sugar beet): 70%
pest or weed control at 500 ppm (cocklebur): 40%
pest or weed control at 500 ppm (jimsonweed): 60%
pest or weed control at 500 ppm (annual morning glory): 0%
pest or weed control at 500 ppm (pigweed): 0%
pest or weed control at 500 ppm (velvetleaf): 60%
plant injury at 500 ppm (corn): 0%
plant injury at 500 ppm (rice [1]): 40%
plant injury at 500 ppm (sorghum): 40%
plant injury at 500 ppm (wheat): 0%
pest or weed control at 500 ppm (barnyardgrass [2]): 0%
pest or weed control at 500 ppm (crabgrass): 20%
pest or weed control at 500 ppm (yellow foxtail): 0%
pest or weed control at 500 ppm (johnson grass): 80%
pest or weed control at 500 ppm (wild oats): 0%
pest or weed control at 500 ppm (yellow nutsedge [3]): 0%
pest or weed control at 2000 g/ha (rice [4]): 90%
pest or weed control at 2000 g/ha (barnyardgrass [5]): 95%
pest or weed control at 2000 g/ha (sprangletop): 45%
pest or weed control at 2000 g/ha (yellow nutsedge [6]): 80%
% NH4-N Remaining After 2 Weeks Incubation ([7]; 0.01 ppm): 0%
% NH4-N Remaining After 2 Weeks Incubation ([7]; 0.1 ppm): 0%
% NH4-N Remaining After 2 Weeks Incubation ([7]; 1 ppm): 38%
% NH4-N Remaining After 2 Weeks Incubation ([7]; 10 ppm): 71%

COC(=O)c1ccccc1NS(=O)(=O)c1nc2nc(C)cc(C)n2n1 [Compound 10, methyl N-(5,7-dimethyl-1,2,4-triazolo[1,5-a]pyrimidine-2-sulfonyl)anthranilate]
plant injury at 500 ppm (cotton): 0%
plant injury at 500 ppm (rape): 10%
plant injury at 500 ppm (soybean): 20%
plant injury at 500 ppm (sugar beet): 60%
pest or weed control at 500 ppm (cocklebur): 15%
pest or weed control at 500 ppm (jimsonweed): 0%
pest or weed control at 500 ppm (annual morning glory): 0%
pest or weed control at 500 ppm (pigweed): 20%
pest or weed control at 500 ppm (velvetleaf): 0%
plant injury at 500 ppm (corn): 0%
plant injury at 500 ppm (sorghum): 0%
plant injury at 500 ppm (wheat): 0%
pest or weed control at 500 ppm (barnyardgrass [2]): 0%
pest or weed control at 500 ppm (crabgrass): 0%
pest or weed control at 500 ppm (yellow foxtail): 0%
pest or weed control at 500 ppm (johnson grass): 0%
pest or weed control at 500 ppm (wild oats): 0%
pest or weed control at 500 ppm (yellow nutsedge [3]): 0%
pest or weed control at 1000 g/ha (rice [4]; 1.0 Kg/Ha): 93%
pest or weed control at 1000 g/ha (barnyardgrass [5]; 1.0 Kg/Ha): 90%
pest or weed control at 1000 g/ha (sprangletop; 1.0 Kg/Ha): 50%
pest or weed control at 1000 g/ha (yellow nutsedge [6]; 1.0 Kg/Ha): 90%
% NH4-N Remaining After 2 Weeks Incubation ([7]; 0.01 ppm): 0%
% NH4-N Remaining After 2 Weeks Incubation ([7]; 0.1 ppm): 0%
% NH4-N Remaining After 2 Weeks Incubation ([7]; 1 ppm): 27%
% NH4-N Remaining After 2 Weeks Incubation ([7]; 10 ppm): 70%

Cc1cc(C)n2nc(S(=O)(=O)Nc3cccc(Cl)c3)nc2n1 [Compound 17]
plant injury at 500 ppm (cotton): 15%
plant injury at 500 ppm (rape): 70%
plant injury at 500 ppm (soybean): 15%
plant injury at 500 ppm (sugar beet): 10%
pest or weed control at 500 ppm (cocklebur): 10%
pest or weed control at 500 ppm (jimsonweed): 0%
pest or weed control at 500 ppm (annual morning glory): 0%
pest or weed control at 500 ppm (pigweed): 50%
pest or weed control at 500 ppm (velvetleaf): 70%
plant injury at 500 ppm (corn): 20%
plant injury at 500 ppm (rice [1]): 0%
plant injury at 500 ppm (sorghum): 40%
plant injury at 500 ppm (wheat): 0%
pest or weed control at 500 ppm (barnyardgrass [2]): 0%
pest or weed control at 500 ppm (crabgrass): 0%
pest or weed control at 500 ppm (yellow foxtail): 20%
pest or weed control at 500 ppm (johnson grass): 60%
pest or weed control at 500 ppm (wild oats): 0%
pest or weed control at 500 ppm (yellow nutsedge [3]): 0%
pest or weed control at 4000 g/ha (rice [4]; 4.0 Kg/Ha): 97%
pest or weed control at 4000 g/ha (barnyardgrass [5]; 4.0 Kg/Ha): 40%
pest or weed control at 4000 g/ha (sprangletop; 4.0 Kg/Ha): 0%
pest or weed control at 4000 g/ha (yellow nutsedge [6]; 4.0 Kg/Ha): 90%
% NH4-N Remaining After 2 Weeks Incubation ([7]; 0.01 ppm): 0%
% NH4-N Remaining After 2 Weeks Incubation ([7]; 0.1 ppm): 1%
% NH4-N Remaining After 2 Weeks Incubation ([7]; 1 ppm): 38%
% NH4-N Remaining After 2 Weeks Incubation ([7]; 10 ppm): 80%
